pKd: −log10 of the molar value.
Tests used:
NLRP3 [1] = molecular target: T1, NLRP3 (Homo sapiens, UniProt Q96P20); test: SPR, NLRP3 immobilized on CM5 chip, […] binding model; parameters: Recombinant human NLRP3 protein (CUSBIO, #CSB-EP822275HU3)
Target sequence in this assay (Q96P20 whole entry): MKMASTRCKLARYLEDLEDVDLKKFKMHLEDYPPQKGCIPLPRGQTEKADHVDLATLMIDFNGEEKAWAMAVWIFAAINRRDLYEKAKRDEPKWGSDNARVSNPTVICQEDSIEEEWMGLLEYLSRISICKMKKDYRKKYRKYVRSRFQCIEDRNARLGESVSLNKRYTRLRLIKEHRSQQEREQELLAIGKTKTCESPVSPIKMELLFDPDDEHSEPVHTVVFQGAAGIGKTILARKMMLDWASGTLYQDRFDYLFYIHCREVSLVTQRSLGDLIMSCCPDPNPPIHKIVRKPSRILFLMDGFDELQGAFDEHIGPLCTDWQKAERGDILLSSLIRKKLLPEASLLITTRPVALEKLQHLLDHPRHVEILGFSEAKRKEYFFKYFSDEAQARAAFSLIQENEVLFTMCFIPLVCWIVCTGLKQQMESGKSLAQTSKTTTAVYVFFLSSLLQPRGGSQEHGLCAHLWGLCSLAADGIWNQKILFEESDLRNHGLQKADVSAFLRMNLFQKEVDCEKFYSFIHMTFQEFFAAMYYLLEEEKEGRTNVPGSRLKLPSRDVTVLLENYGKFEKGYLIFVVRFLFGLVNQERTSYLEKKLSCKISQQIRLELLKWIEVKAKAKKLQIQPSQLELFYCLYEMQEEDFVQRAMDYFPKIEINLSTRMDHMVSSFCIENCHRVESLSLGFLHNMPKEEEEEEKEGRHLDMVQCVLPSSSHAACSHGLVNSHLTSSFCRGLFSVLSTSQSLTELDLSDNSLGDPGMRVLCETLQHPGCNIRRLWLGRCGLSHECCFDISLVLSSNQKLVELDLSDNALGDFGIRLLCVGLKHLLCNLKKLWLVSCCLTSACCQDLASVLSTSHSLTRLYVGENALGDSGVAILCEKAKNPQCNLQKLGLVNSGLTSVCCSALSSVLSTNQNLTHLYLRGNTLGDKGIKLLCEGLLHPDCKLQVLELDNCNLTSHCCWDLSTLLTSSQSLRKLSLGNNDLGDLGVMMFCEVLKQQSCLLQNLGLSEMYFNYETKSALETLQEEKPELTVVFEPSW

NLRP3 [2] = molecular target: T1, NLRP3; test: streptavidin pull-down from HEK-293T lysates, Western blot; assay type: cell-based; parameters: Flag-NLRP3; Flag-NLRP3 (NACHT: 220-536aa); Flag-NLRP3 (LRR: 742-991aa)
Target sequence in this assay (Q96P20 220-536): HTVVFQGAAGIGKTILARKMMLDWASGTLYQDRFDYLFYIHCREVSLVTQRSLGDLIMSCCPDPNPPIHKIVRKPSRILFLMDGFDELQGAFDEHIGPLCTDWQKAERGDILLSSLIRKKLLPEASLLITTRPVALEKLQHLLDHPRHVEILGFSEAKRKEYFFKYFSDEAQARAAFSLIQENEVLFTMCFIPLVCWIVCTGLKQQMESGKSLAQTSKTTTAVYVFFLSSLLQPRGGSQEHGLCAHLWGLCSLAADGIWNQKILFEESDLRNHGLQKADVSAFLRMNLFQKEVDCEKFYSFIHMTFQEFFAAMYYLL

SMILES	pKd (NLRP3 [1])	streptavidin pull-down from HEK-293T lysates, Western blot (NLRP3 [2])
O=c1ccc2cc3ccoc3cc2o1 [S4737, Psoralen]	3.68	–
O=c1c2ccccc2nc2n1CCc1c-2[nH]c2ccccc12 [S2349]	3.84	–
O=C1N[C@H]2[C@H](CS[C@H]2CCCCC(=O)Oc2c3occc3cc3ccc(=O)oc23)N1 [Biotinylated-Psoralen]	–	Streptavidin pull-down assays showed that Bio-Pso specifically bound to the NACHT and LRR domains, but not the PYD domain

Reference: paper PMC11881452, “Inactivation of NLRP3 inflammasome by dephosphorylation at Serine 658 alleviates glial inflammation in the mouse model of Parkinson’s disease” (Molecular Neurodegeneration, 2025)
